Results taken from the NIST ThermoML archive (doi:10.1016/j.jct.2014.05.014).

Test: cn = amount concentration of the nth substance listed, in mol/dm3
Settings: 101.3 kPa, Liquid; for electrical conductivity: Alternating current cell with electrodes; for viscosity: Falling or rolling sphere viscometry; for mass density: Vibrating tube method

CC(N)C(=O)[O-].[Na+] (stereo not drawn) [sodium DL-alaninate] + O
Settings | electrical conductivity [S/m] | mass density [kg/m3] | viscosity [mPa·s]
303.15 K, c1 = 0.478 | – | – | 0.98
303.15 K, c1 = 0.498 | 2.82 | 1021.4 | –
303.15 K, c1 = 0.985 | – | 1045.4 | –
303.15 K, c1 = 0.99 | 4.45 | – | –
303.15 K, c1 = 0.994 | – | – | 1.232
303.15 K, c1 = 1.485 | 5.36 | – | –
303.15 K, c1 = 1.495 | – | 1069 | 1.579
303.15 K, c1 = 1.975 | – | 1090.8 | 2.011
303.15 K, c1 = 1.983 | 5.78 | – | –
303.15 K, c1 = 2.467 | – | 1113.1 | –
303.15 K, c1 = 2.476 | 5.77 | – | –
303.15 K, c1 = 2.496 | – | – | 2.683
303.15 K, c1 = 3.032 | – | – | 3.708
303.15 K, c1 = 3.048 | 5.43 | – | –
303.15 K, c1 = 3.063 | – | 1139.4 | –
308.15 K, c1 = 0.478 | – | – | 0.877
308.15 K, c1 = 0.498 | 3.11 | 1019.6 | –
308.15 K, c1 = 0.985 | – | 1043.4 | –
308.15 K, c1 = 0.99 | 4.92 | – | –
308.15 K, c1 = 0.994 | – | – | 1.099
308.15 K, c1 = 1.485 | 5.94 | – | –
308.15 K, c1 = 1.495 | – | 1066.9 | 1.423
308.15 K, c1 = 1.975 | – | 1088.5 | 1.771
308.15 K, c1 = 1.983 | 6.45 | – | –
308.15 K, c1 = 2.467 | – | 1110.7 | –
308.15 K, c1 = 2.476 | 6.48 | – | –
308.15 K, c1 = 2.496 | – | – | 2.341
308.15 K, c1 = 3.032 | – | – | 3.187
308.15 K, c1 = 3.048 | 6.17 | – | –
308.15 K, c1 = 3.063 | – | 1136.8 | –
313.15 K, c1 = 0.478 | – | – | 0.796
313.15 K, c1 = 0.498 | 3.42 | 1017.7 | –
313.15 K, c1 = 0.985 | – | 1041.4 | –
313.15 K, c1 = 0.99 | 5.41 | – | –
313.15 K, c1 = 0.994 | – | – | 0.991
313.15 K, c1 = 1.485 | 6.54 | – | –
313.15 K, c1 = 1.495 | – | 1064.7 | 1.243
313.15 K, c1 = 1.975 | – | 1086.1 | 1.574
313.15 K, c1 = 1.983 | 7.13 | – | –
313.15 K, c1 = 2.467 | – | 1108.2 | –
313.15 K, c1 = 2.476 | 7.22 | – | –
313.15 K, c1 = 2.496 | – | – | 2.06
313.15 K, c1 = 3.032 | – | – | 2.765
313.15 K, c1 = 3.048 | 6.94 | – | –
313.15 K, c1 = 3.063 | – | 1134 | –
318.15 K, c1 = 0.478 | – | – | 0.721
318.15 K, c1 = 0.498 | 3.72 | 1015.7 | –
318.15 K, c1 = 0.985 | – | 1039.3 | –
318.15 K, c1 = 0.99 | 5.89 | – | –
318.15 K, c1 = 0.994 | – | – | 0.895
318.15 K, c1 = 1.485 | 7.14 | – | –
318.15 K, c1 = 1.495 | – | 1062.3 | 1.122
318.15 K, c1 = 1.975 | – | 1083.7 | 1.405
318.15 K, c1 = 1.983 | 7.82 | – | –
318.15 K, c1 = 2.467 | – | 1105.5 | –
318.15 K, c1 = 2.476 | 7.98 | – | –
318.15 K, c1 = 2.496 | – | – | 1.821
318.15 K, c1 = 3.032 | – | – | 2.426
318.15 K, c1 = 3.048 | 7.72 | – | –
318.15 K, c1 = 3.063 | – | 1131.3 | –
323.15 K, c1 = 0.478 | – | – | 0.661
323.15 K, c1 = 0.498 | 4.04 | 1013.4 | –
323.15 K, c1 = 0.985 | – | 1036.9 | –
323.15 K, c1 = 0.99 | 6.38 | – | –
323.15 K, c1 = 0.994 | – | – | 0.817
323.15 K, c1 = 1.485 | 7.76 | – | –
323.15 K, c1 = 1.495 | – | 1059.8 | 1.014
323.15 K, c1 = 1.975 | – | 1081.1 | 1.268
323.15 K, c1 = 1.983 | 8.52 | – | –
323.15 K, c1 = 2.467 | – | 1102.8 | –
323.15 K, c1 = 2.476 | 8.73 | – | –
323.15 K, c1 = 2.496 | – | – | 1.629
323.15 K, c1 = 3.032 | – | – | 2.146
323.15 K, c1 = 3.048 | 8.52 | – | –
323.15 K, c1 = 3.063 | – | 1128.4 | –
328.15 K, c1 = 0.478 | – | – | 0.606
328.15 K, c1 = 0.498 | 4.37 | 1011.1 | –
328.15 K, c1 = 0.985 | – | 1034.5 | –
328.15 K, c1 = 0.99 | 6.87 | – | –
328.15 K, c1 = 0.994 | – | – | 0.75
328.15 K, c1 = 1.485 | 8.38 | – | –
328.15 K, c1 = 1.495 | – | 1057.3 | 0.924
328.15 K, c1 = 1.975 | – | 1078.4 | 1.148
328.15 K, c1 = 1.983 | 9.22 | – | –
328.15 K, c1 = 2.467 | – | 1100.2 | –
328.15 K, c1 = 2.476 | 9.5 | – | –
328.15 K, c1 = 2.496 | – | – | 1.467
328.15 K, c1 = 3.032 | – | – | 1.912
328.15 K, c1 = 3.048 | 9.33 | – | –
328.15 K, c1 = 3.063 | – | 1125.4 | –
333.15 K, c1 = 0.478 | – | – | 0.559
333.15 K, c1 = 0.498 | 4.68 | 1008.7 | –
333.15 K, c1 = 0.985 | – | 1032 | –
333.15 K, c1 = 0.99 | 7.37 | – | –
333.15 K, c1 = 0.994 | – | – | 0.687
333.15 K, c1 = 1.485 | 8.99 | – | –
333.15 K, c1 = 1.495 | – | 1054.6 | 0.847
333.15 K, c1 = 1.975 | – | 1075.7 | 1.047
333.15 K, c1 = 1.983 | 9.93 | – | –
333.15 K, c1 = 2.467 | – | 1097.2 | –
333.15 K, c1 = 2.476 | 10.3 | – | –
333.15 K, c1 = 2.496 | – | – | 1.326
333.15 K, c1 = 3.032 | – | – | 1.718
333.15 K, c1 = 3.048 | 10.1 | – | –
333.15 K, c1 = 3.063 | – | 1122.4 | –
338.15 K, c1 = 0.478 | – | – | 0.52
338.15 K, c1 = 0.498 | 5.01 | 1006 | –
338.15 K, c1 = 0.985 | – | 1029.3 | –
338.15 K, c1 = 0.99 | 7.87 | – | –
338.15 K, c1 = 0.994 | – | – | 0.638
338.15 K, c1 = 1.485 | 9.62 | – | –
338.15 K, c1 = 1.495 | – | 1051.8 | 0.778
338.15 K, c1 = 1.975 | – | 1072.9 | 0.96
338.15 K, c1 = 1.983 | 10.7 | – | –
338.15 K, c1 = 2.467 | – | 1094.3 | –
338.15 K, c1 = 2.476 | 11 | – | –
338.15 K, c1 = 2.496 | – | – | 1.206
338.15 K, c1 = 3.032 | – | – | 1.546
338.15 K, c1 = 3.048 | 11 | – | –
338.15 K, c1 = 3.063 | – | 1119.4 | –
343.15 K, c1 = 0.478 | – | – | 0.484
343.15 K, c1 = 0.498 | 5.34 | 1003.1 | –
343.15 K, c1 = 0.985 | – | 1026.4 | –
343.15 K, c1 = 0.99 | 8.38 | – | –
343.15 K, c1 = 0.994 | – | – | 0.591
343.15 K, c1 = 1.485 | 10.2 | – | –
343.15 K, c1 = 1.495 | – | 1049 | 0.729
343.15 K, c1 = 1.975 | – | 1069.9 | 0.881
343.15 K, c1 = 1.983 | 11.3 | – | –
343.15 K, c1 = 2.467 | – | 1091.2 | –
343.15 K, c1 = 2.476 | 11.8 | – | –
343.15 K, c1 = 2.496 | – | – | 1.102
343.15 K, c1 = 3.032 | – | – | 1.408
343.15 K, c1 = 3.048 | 11.8 | – | –
343.15 K, c1 = 3.063 | – | 1116.2 | –
